The supplement of paper PMC10307832

Compound: N#CC1(c2ccc(NC(=O)c3cccnc3NCc3ccncc3)cc2)CCCC1 [Apatinib] + CS(=O)(=O)N1CCN(Cc2cc3nc(-c4cccc5[nH]ncc45)nc(N4CCOCC4)c3s2)CC1 [Pictilisib] (partner 1 µM)
Experiment: relative viability (nuclei count vs DMSO), 5 days (fraction); higher = more cells survive
Conditions: first compound 0.08 µM
Summary of the method: (§1)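 Nuclei were stained with Hoechst during a one-step fixation (final 0.05% Triton X-100, 1% formaldehyde, 1 ug/ml Hoechst) carried out 5 days after dosing, then counted on 4× images. The cells, lung cancer lines in 1536-well plates, had been dosed by pin tool the day after seeding with one drug alone or a fixed anchor-drug dose plus five library-drug doses (not always all listed) in √10 steps. Relative viability is the nuclei count in treated wells divided by that in vehicle wells, and each value is the median of duplicate plates.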

Cell Line | relative viability
201T | 0.748
A549 | 0.651
A-427 | 0.925
BEN | 0.557
CAL-12T | 0.304
COR-L23 | 0.966
COR-L 105 | 0.512
Calu-6 | 0.954
EBC-1 | 0.36
EKVX | 0.454
EMC-BAC-2 | 0.561
EPLC-272H | 0.351
H3255 | 0.448
HARA | 0.447
HCC-15 | 0.77
HCC-44 | 0.639
HCC-78 | 0.299
HCC-366 | 0.22

Cell Line | relative viability
HCC-827 | 1.04
HOP-62 | 0.85
IA-LM | 0.384
LC-2-ad | 0.653
NCI-H520 | 0.281
NCI-H661 | 0.273
NCI-H1299 | 0.882
NCI-H1563 | 0.644
NCI-H1650 | 0.355
NCI-H1703 | 0.239
NCI-H2009 | 1.12
NCI-H2023 | 0.269
NCI-H2228 | 0.338
SK-LU-1 | 0.786
SK-MES-1 | 0.421
SW 1573 | 0.588
UMC-11 | 0.878

Same assay, conditions: first compound 0.253 µM

Cell Line | relative viability
201T | 0.643
A549 | 0.626
A-427 | 0.679
ABC-1 | 1.01
BEN | 0.526
CAL-12T | 0.352
COR-L23 | 0.777
COR-L 105 | 0.471
Calu-6 | 0.951
ChaGo-K-1 | 0.999
EBC-1 | 0.345
EKVX | 0.394
EMC-BAC-2 | 0.593
EPLC-272H | 0.331
H3255 | 0.454
HARA | 0.491
HCC-15 | 0.786
HCC-44 | 0.686

Cell Line | relative viability
HCC-78 | 0.158
HCC-366 | 0.184
HCC-827 | 0.867
IA-LM | 0.266
LC-2-ad | 0.47
NCI-H520 | 0.268
NCI-H661 | 0.393
NCI-H1299 | 0.88
NCI-H1563 | 0.656
NCI-H1650 | 0.658
NCI-H1703 | 0.272
NCI-H2009 | 0.727
NCI-H2023 | 0.228
NCI-H2228 | 0.417
SK-LU-1 | 0.637
SK-MES-1 | 0.3
SW 1573 | 0.476
UMC-11 | 0.731

Same assay, conditions: first compound 0.8 µM

Cell Line | relative viability
201T | 0.662
A549 | 0.421
A-427 | 0.715
ABC-1 | 0.637
BEN | 0.55
CAL-12T | 0.393
COR-L23 | 0.788
COR-L 105 | 0.33
Calu-6 | 0.813
ChaGo-K-1 | 0.721
EBC-1 | 0.299
EKVX | 0.435
EMC-BAC-2 | 0.572
EPLC-272H | 0.357
H3255 | 0.388
HARA | 0.494
HCC-15 | 0.693
HCC-44 | 0.584
HCC-78 | 0.236

Cell Line | relative viability
HCC-366 | 0.183
HCC-827 | 0.806
HOP-62 | 0.816
IA-LM | 0.363
LC-2-ad | 0.39
NCI-H520 | 0.301
NCI-H661 | 0.461
NCI-H1299 | 0.738
NCI-H1563 | 0.62
NCI-H1650 | 0.58
NCI-H1703 | 0.198
NCI-H2009 | 0.737
NCI-H2023 | 0.209
NCI-H2228 | 0.451
SK-LU-1 | 0.564
SK-MES-1 | 0.326
SW 1573 | 0.548
UMC-11 | 0.688

Same assay, conditions: first compound 2.53 µM

Cell Line | relative viability
201T | 0.604
A549 | 0.488
A-427 | 0.611
ABC-1 | 0.752
BEN | 0.464
CAL-12T | 0.484
COR-L23 | 0.65
COR-L 105 | 0.438
Calu-6 | 0.864
ChaGo-K-1 | 0.638
EBC-1 | 0.247
EKVX | 0.341
EMC-BAC-2 | 0.516
EPLC-272H | 0.324
H3255 | 0.436
HARA | 0.435
HCC-15 | 0.706
HCC-44 | 0.548
HCC-78 | 0.221

Cell Line | relative viability
HCC-366 | 0.129
HCC-827 | 0.777
HOP-62 | 0.758
IA-LM | 0.325
LC-2-ad | 0.353
NCI-H520 | 0.314
NCI-H661 | 0.381
NCI-H1299 | 0.646
NCI-H1563 | 0.644
NCI-H1650 | 0.526
NCI-H1703 | 0.222
NCI-H2009 | 0.644
NCI-H2023 | 0.209
NCI-H2228 | 0.355
SK-LU-1 | 0.557
SK-MES-1 | 0.37
SW 1573 | 0.517
UMC-11 | 0.76

Same assay, conditions: first compound 8 µM

Cell Line | relative viability
201T | 0.663
A549 | 0.406
A-427 | 0.592
ABC-1 | 0.552
BEN | 0.468
CAL-12T | 0.353
COR-L23 | 0.658
COR-L 105 | 0.354
Calu-6 | 0.602
ChaGo-K-1 | 0.725
EBC-1 | 0.157
EKVX | 0.401
EMC-BAC-2 | 0.527
EPLC-272H | 0.349
H3255 | 0.447
HARA | 0.307
HCC-15 | 0.71
HCC-44 | 0.659
HCC-78 | 0.205

Cell Line | relative viability
HCC-366 | 0.111
HCC-827 | 1.01
HOP-62 | 0.466
IA-LM | 0.287
LC-2-ad | 0.229
NCI-H520 | 0.275
NCI-H661 | 0.367
NCI-H1299 | 0.406
NCI-H1563 | 0.632
NCI-H1650 | 0.477
NCI-H1703 | 0.221
NCI-H2009 | 0.501
NCI-H2023 | 0.231
NCI-H2228 | 0.539
SK-LU-1 | 0.453
SK-MES-1 | 0.32
SW 1573 | 0.535
UMC-11 | 0.686

Compound: N#CC1(c2ccc(NC(=O)c3cccnc3NCc3ccncc3)cc2)CCCC1 [Apatinib] + Nc1ncn([C@H]2C[C@H](O)[C@@H](CO)O2)c(=O)n1 [Decitabine] (partner 2 µM)
Experiment: as above
Conditions: first compound 0.08 µM
Summary of the method: as §1

Cell Line | relative viability
201T | 0.863
A549 | 0.257
A-427 | 0.604
BEN | 0.694
COR-L23 | 0.514
COR-L 105 | 0.706
ChaGo-K-1 | 0.536
EKVX | 0.352
EPLC-272H | 0.395
H3255 | 0.707
HARA | 0.676
HCC-15 | 0.703
HCC-44 | 0.963
HCC-78 | 0.7
HCC-366 | 0.395
HCC-827 | 0.345

Cell Line | relative viability
HOP-62 | 0.221
LC-2-ad | 0.862
NCI-H520 | 0.544
NCI-H522 | 0.685
NCI-H661 | 0.615
NCI-H1648 | 0.66
NCI-H1650 | 0.495
NCI-H2009 | 0.367
NCI-H2023 | 0.233
NCI-H2342 | 0.704
SK-LU-1 | 0.724
SK-MES-1 | 0.404
SW 900 | 0.417
SW 1573 | 0.77
UMC-11 | 0.711

Same assay, conditions: first compound 0.253 µM

Cell Line | relative viability
201T | 0.895
A549 | 0.264
A-427 | 0.583
ABC-1 | 1.04
BEN | 0.668
COR-L23 | 0.509
COR-L 105 | 0.716
ChaGo-K-1 | 0.56
EKVX | 0.291
EMC-BAC-2 | 0.967
EPLC-272H | 0.324
H3255 | 0.553
HARA | 0.538
HCC-15 | 0.656
HCC-44 | 0.929
HCC-78 | 0.694
HCC-366 | 0.365

Cell Line | relative viability
HCC-827 | 0.335
HOP-62 | 0.212
LC-2-ad | 0.776
NCI-H520 | 0.476
NCI-H522 | 0.63
NCI-H661 | 0.543
NCI-H1648 | 0.502
NCI-H1650 | 0.55
NCI-H2009 | 0.411
NCI-H2023 | 0.261
NCI-H2342 | 0.767
SK-LU-1 | 0.782
SK-MES-1 | 0.36
SW 900 | 0.479
SW 1573 | 0.615
UMC-11 | 0.64

Same assay, conditions: first compound 0.8 µM

Cell Line | relative viability
201T | 0.842
A549 | 0.247
A-427 | 0.533
ABC-1 | 1.19
BEN | 0.672
COR-L23 | 0.452
COR-L 105 | 0.631
ChaGo-K-1 | 0.522
EKVX | 0.339
EMC-BAC-2 | 0.925
EPLC-272H | 0.405
H3255 | 0.578
HARA | 0.438
HCC-15 | 0.638
HCC-44 | 0.887
HCC-78 | 0.692
HCC-366 | 0.309

Cell Line | relative viability
HCC-827 | 0.363
HOP-62 | 0.2
LC-2-ad | 0.792
NCI-H520 | 0.559
NCI-H522 | 0.749
NCI-H661 | 0.542
NCI-H1648 | 0.479
NCI-H1650 | 0.416
NCI-H2009 | 0.35
NCI-H2023 | 0.269
NCI-H2342 | 0.709
SK-LU-1 | 0.671
SK-MES-1 | 0.488
SW 900 | 0.447
SW 1573 | 0.593
UMC-11 | 0.575

Same assay, conditions: first compound 2.53 µM

Cell Line | relative viability
201T | 0.85
A549 | 0.344
A-427 | 0.575
ABC-1 | 1.21
BEN | 0.693
COR-L23 | 0.427
COR-L 105 | 0.711
ChaGo-K-1 | 0.53
EKVX | 0.309
EMC-BAC-2 | 0.954
EPLC-272H | 0.307
H3255 | 0.542
HCC-15 | 0.604
HCC-44 | 0.95
HCC-78 | 0.701
HCC-366 | 0.353

Cell Line | relative viability
HCC-827 | 0.322
HOP-62 | 0.428
LC-2-ad | 0.668
NCI-H520 | 0.5
NCI-H522 | 0.606
NCI-H661 | 0.581
NCI-H1648 | 0.428
NCI-H1650 | 0.64
NCI-H2009 | 0.508
NCI-H2023 | 0.307
NCI-H2342 | 0.799
SK-LU-1 | 0.667
SK-MES-1 | 0.975
SW 900 | 0.562
SW 1573 | 0.513
UMC-11 | 0.714

Same assay, conditions: first compound 8 µM

Cell Line | relative viability
201T | 0.781
A549 | 0.448
A-427 | 0.618
ABC-1 | 0.895
BEN | 0.723
COR-L23 | 0.413
COR-L 105 | 0.632
ChaGo-K-1 | 0.43
EKVX | 0.298
EMC-BAC-2 | 1.01
EPLC-272H | 0.342
H3255 | 0.517
HARA | 0.671
